Source: PMC6309922, “(ADP-ribosyl)hydrolases: Structural Basis for Differential Substrate Recognition and Inhibition” (Cell Chemical Biology, 2018)
Where two headings read alike, the source gives them in different places. Marks after values point to notes of the source that are not given here.

Assays:
LchARH3 [1] = biological target: T1, LchARH3 (Latimeria chalumnae, UniProt H3BCW1); assay type: biochemical; conditions: for inhibitory potential against ARH3 (in words): serine MARylated histone H3 peptide as substrate, 1-1,000 μM compound; for support of hydrolysis of Ser-ADPr and PAR by metal (in words): MgII-stripped enzyme, 100 μM metal salt
T1 construct: LchARH3 (GenBank: XP_005988572; aa residues 10-362); made in house; host or cells: E. coli Rosetta (DE3)
T1 sequence (H3BCW1 10-356 limits assumed): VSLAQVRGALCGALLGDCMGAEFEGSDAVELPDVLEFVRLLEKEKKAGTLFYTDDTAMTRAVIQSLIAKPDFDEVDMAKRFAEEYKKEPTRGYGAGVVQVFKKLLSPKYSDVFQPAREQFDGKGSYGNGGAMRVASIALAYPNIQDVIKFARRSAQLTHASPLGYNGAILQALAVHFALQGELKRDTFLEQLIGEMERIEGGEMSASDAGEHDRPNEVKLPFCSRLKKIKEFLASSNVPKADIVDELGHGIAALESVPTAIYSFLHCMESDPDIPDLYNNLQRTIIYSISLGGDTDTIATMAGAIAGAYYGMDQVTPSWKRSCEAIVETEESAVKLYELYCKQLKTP
Experimental: (§1) ARH3 activity assays were performed essentially as described ([Fontana et al., 2017]). Briefly, H3 peptide (aa 1-20, biotinylated) was modified by incubation with 0.5 μM PARP1, 1 μM HPF1 and activated DNA (Trevigen) in assay buffer (50 mM TrisHCl [pH 8], 200 mM NaCl, 2 mM MgCl2, 1 mM DTT, 10 μM NAD^+ and 1 μCi ^32P-NAD^+). Reactions were incubated for 30 min at 30°C and stopped by addition of 1 μM olaparib. Reaction were further incubated in presence of 1 μM hydrolase for 1 h at 30°C. Reactions were stopped by addition of LDS sample buffer (Life Technologies) and incubation at 95°C for 3 min. Samples were then analysed by SDS-PAGE, immunoblot and autoradiography. For inhibitor study the ARH3 was pre-incubated with indicated amount of inhibitor for 5 min at RT.

hARH1 [2] = biological target: T2, hARH1 (Homo sapiens, UniProt P54922); experiment: Removal of Arg-ADP-ribosylation from HeLa cell extracts (32P autoradiography); assay type: biochemical; conditions: arginine ADP-ribosylated whole cell lysate as substrate; 1-1,000 μM compound
T2 construct: made in house; host or cells: E. coli Rosetta (DE3)
Experimental: In vitro modification of proteins from HeLa cell extracts by mARTC2.2 recombinant protein was performed, with minor modifications, as described earlier ([Palazzo et al., 2016]). Briefly, cells were grown to confluence on two 10-cm dishes, washed thrice with 50 mM TrisHCl (pH 7.5) and 200 mM NaCl and lysed in 800 μL of 50 mM Tris-HCl pH 7.5, 150 mM NaCl, 0.5% Triton X-100, 0.2 mM DTT and 1 μM olaparib at 4°C supplemented with cOmplete™ EDTA-free protease inhibitor (Roche). The cell extract was clarified by centrifugation. 12 uL of extract per reaction were supplemented with 15 mM MgCl2, 1 μM mARTC2.2 and 1 μCi ^32P-NAD^+ and incubated for 15 min at 30°C. Lysates were further incubated in presence of hydrolases for 45 min at 30°C. Reactions were stopped by addition of LDS sample buffer (Life Technologies) and incubation at 95°C for 3 min. Samples were then analysed by SDS-PAGE and autoradiography. For inhibitor study the hARH1 was pre-incubated with indicated amount of inhibitor for 5 min at RT.

hARH1 [3] = biological target: T2, hARH1; experiment: Enzyme kinetics and inhibition assay with fluorogenic substrate TFMU-ADPr; assay type: biochemical; conditions: for IC50: 20 μM TFMU-ADPr as substrate, triplicate
Experimental: (§2) Reactions were performed as described in ([Drown et al., 2018]). Briefly, reactions were carried out in 384-well plates using 50 mM Na2HPO4 (pH 7.4), 10 mM MgCl2, 5 mM DTT and indicated amounts of TFMU-ADPr as substrate. After shaking for 5 s, fluorescence was recorded at 5 s intervals for 15 min on a Molecular Devices SpectraMax M3 microplate reader (reader settings: λEx 385 nm, λEm 502 nm, λcutoff 495 nm, 6 reads/well, low gain). Initial reaction rates were determined by fitting the linear portions of reaction progress curves. Initial rates were plotted against substrate concentration and fit to the Michaelis-Menton equation using a non-linear curve-fitting algorithm in GraphPad Prism 6.
(§3) For inhibitor studies enzymes and inhibitor were pre-incubated for 5 min at RT before addition of substrate. Percent inhibition was calculated with the no enzyme and no inhibitor reactions as positive and negative controls, respectively. Dose-response curves were fit using GraphPad Prism 6.

hARH3 [4] = biological target: T3, hARH3 (Homo sapiens, UniProt Q9NX46); experiment: as above; assay type: biochemical; conditions: triplicate; for IC50: 20 μM TFMU-ADPr as substrate
T3 construct: made in house; host or cells: E. coli Rosetta (DE3)
T3 sequence (Q9NX46 1-363): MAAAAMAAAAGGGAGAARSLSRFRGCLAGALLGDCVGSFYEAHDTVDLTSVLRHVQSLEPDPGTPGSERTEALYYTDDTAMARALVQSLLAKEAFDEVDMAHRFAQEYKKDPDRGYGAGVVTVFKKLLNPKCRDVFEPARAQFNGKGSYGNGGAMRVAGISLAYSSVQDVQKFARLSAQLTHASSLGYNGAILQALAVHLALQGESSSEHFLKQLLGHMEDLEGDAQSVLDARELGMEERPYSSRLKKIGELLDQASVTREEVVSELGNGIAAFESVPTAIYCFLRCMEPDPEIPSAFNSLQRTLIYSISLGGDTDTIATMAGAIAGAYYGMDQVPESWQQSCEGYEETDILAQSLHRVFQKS
Experimental: as §2, §3

hARH3 [5] = biological target: T3, hARH3; experiment: De-modification of Ser-ADP-ribosyl H3 peptide and degradation of PAR (32P autoradiography); assay type: biochemical; conditions: for support of hydrolysis of Ser-ADPr and PAR by metal (in words): MgII-stripped enzyme, 100 μM metal salt
Experimental: as §1

hARH3 [6] = biological target: T3, hARH3; parameters: method as in Drown et al., 2018; conditions: in situ generation of Arg-ADPr; ref Drown et al., 2018; cited from earlier work
hARH3 [7] = biological target: T3, hARH3; experiment: Differential scanning fluorimetry (DSF) with metal salts, MgII-depleted enzyme; assay type: binding; conditions: for TM / ΔTM: 100 μM metal salt; for TM: n = 3; for ΔTM: ΔTM = TM (salt) - TM (apo)
LchARH3 [8] = biological target: T1, LchARH3; experiment: biochemical; assay type: binding; conditions: for TM / ΔTM: 100 μM metal salt; for TM: n = 6; for ΔTM: ΔTM = TM (salt) - TM (apo)
Experimental: LchARH3 WT was purified as described above and dialysed against 50 mM TrisHCl (pH 8), 200 mM NaCl, 20 mM EDTA, 1 mM DTT and 5% (v/v) glycerol. EDTA was removed by dialysing twice against 50 mM TrisHCl (pH 8), 200 mM NaCl, 1 mM DTT and 5% (v/v) glycerol. Each dialysis step was carried out with a minimum 1:1,000 ratio of sample to buffer. Only samples with purity >90% (as assessed by SDS-PAGE) were used for subsequent DSF experiments.
Assays were performed essentially as described earlier ([Vivoli et al., 2014]). Briefly, 10 μM LchARH3 wt EDTA-treated, 10x SYPRO® Orange (ThermoFisher Scientific) and indicated amounts of metal salts in assay buffer (50 mM TrisHCl [pH 8], 200 mM NaCl and 1 mM DTT) were thermal denaturated in MicroAmp® Fast plates (Life Technologies) in a StepOne qPCR instrument (ThermoFisher Scientific). The initial temperature of 24°C was held for 2.5 min, followed by a ramp to 97.5°C at 0.5°C/45 sec and then 2 min pause at 98°C. Curves were fit using GraphPad Prism 6. For analysis recorded data were cropped two data points after recorded fluorescence signal maximum and the resulting curves fitted using the Boltzman equation F=BOTTOM+(TOP−BOTTOM)/1+e^(TM−T/SLOPE)
with TM, melting temperature; T, temperature; SLOPE, steepness of curve. For the inference of the binding constant the determined TM’s were plotted and analysed using a single binding site model: TM=BOTTOM+((TOP−BOTTOM)∗(1−(P−Kd−M+(P+M+Kd)^2∗(4∗P∗M)/2P))) with P, protein concentration; M, metal salt concentration; Kd dissociation constant.

[9] = DSF, 16 metal salt dilutions, single-site ligand-binding model, triplicate ± SD, read-out: Kd
[10] = DSF, rounded, read-out: Kd of magnesium on its own

T2 sequence (P54922 whole entry): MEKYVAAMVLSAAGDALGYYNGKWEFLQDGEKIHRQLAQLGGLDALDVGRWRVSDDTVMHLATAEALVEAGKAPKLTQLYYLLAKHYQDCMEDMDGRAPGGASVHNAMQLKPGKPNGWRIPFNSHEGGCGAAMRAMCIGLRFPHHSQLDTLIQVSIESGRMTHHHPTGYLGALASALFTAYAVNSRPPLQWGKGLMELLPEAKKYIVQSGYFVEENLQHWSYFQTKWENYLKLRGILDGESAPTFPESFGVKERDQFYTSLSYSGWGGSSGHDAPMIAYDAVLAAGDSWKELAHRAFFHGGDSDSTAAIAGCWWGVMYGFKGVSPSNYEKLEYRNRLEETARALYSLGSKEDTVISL

| SMILES | TM (hARH3 [7]) [°C] | ΔTM (hARH3 [7]) | TM (LchARH3 [8]) [°C] | ΔTM (LchARH3 [8]) | other results |
| --- | --- | --- | --- | --- | --- |
| Nc1ncnc2c1ncn2[C@@H]1O[C@H](CO[P@](=O)(O)O[P@@](=O)(O)OC[C@H]2NC[C@H](O)[C@@H]2O)[C@@H](O)[C@H]1O [ADP-HPD, adenosine diphosphate (hydroxymethyl)pyrrolidinediol] |  |  |  |  | inhibitory potential against ARH3 (in words) (LchARH3 [1]): inhibited; inhibitory potential against hARH1 (in words) (hARH1 [2]): only mild activity; inhibition of hARH1 (in words) (hARH1 [3]; IC50 conditions, 20 μM TFMU-ADPr): no inhibition |
| Nc1ncnc2c1ncn2C1OC(COP(=O)(O)OP(=O)(O)OCC2CC(O)CN2)C(O)C1O (centres unmarked) [ADP-HPM] |  |  |  |  | inhibitory potential against ARH3 (in words) (LchARH3 [1]): only minor inhibitor potential; inhibitory potential against hARH1 (in words) (hARH1 [2]): only minor inhibitor potential; IC50 (hARH1 [3]): 164 µM |
| Nc1ncnc2c1ncn2C1OC(COP(=O)(O)OP(=O)(O)OCC2OC(O)C(O)C2O)C(O)C1O (centres unmarked) [ADPr, ADP-ribose] |  |  |  |  | inhibitory potential against ARH3 (in words) (LchARH3 [1]): inhibited; inhibitory potential against hARH1 (in words) (hARH1 [2]): only mild activity; IC50 (hARH3 [4]): 3.2 µM; Ki (hARH3 [4]; TFMU-ADPr substrate): 1.08 ± 0.08 µM; IC50 (hARH1 [3]): 228 µM; inhibitory potential against ARH3 (in words) (hARH3 [5]; serine MARylated histone H3 peptide as substrate, 1-1,000 μM compound): inhibited |
| NC(=NCCC[C@H](N)C(=O)O)N[C@H]1O[C@H](COP(=O)(O)OP(=O)(O)OC[C@H]2O[C@@H](n3cnc4c(N)ncnc43)[C@H](O)[C@@H]2O)[C@@H](O)[C@H]1O [Arg-ADPr, arginine-ADP-ribose] |  |  |  |  | inhibition of hARH3 (in words) (hARH3 [6]): potent, cellular inhibitor of hARH3 |
| [Ca+2] [CaCl2, Calcium chloride dehydrate] | 50.1 ± 0.08 | 3.4 ^d °C | 44.4 ± 0.08 | 4.2 ^d °C | Kd (hARH3 [7]; [9]): 266 ± 42 µM; inhibition of ARH3 by calcium (in words) (LchARH3 [1]; de-MARylation assay in presence of 1 mM MgCl2 or 1 mM MnCl2, 1-2,000 μM CaCl2): inhibitor of magnesium-, but not manganese-, supplemented ARH3; Kd (LchARH3 [8]; [9]): 431 ± 68 µM; IC50 (hARH3 [4]): 13.7 µM |
| O.O.O.O.O.O.[Cl-].[Cl-].[Co+2] [CoCl2, Cobalt(II) chloride hexahydrate] | 46.7 ± 0.09 | 0.0 °C | 39.6 ± 0.28 | −0.6 °C |  |
| O.O.O.O.O.O.[Cl][Cr]([Cl])[Cl] [CrCl3, Chromium(III) chloride hexahydrate] | 46.5 ± 0.04 | −0.3 °C | 40.1 ± 0.21 | −0.1 °C |  |
| [Cl][Cu][Cl] [CuCl2, Copper(II) chloride] | 40.5 ± 0.10 | −6.2 ^d °C | 39.0 ± 0.21 | −1.2 ^d °C |  |
| [Cl-].[Li+] [LiCl, Lithium chloride] | 46.6 ± 0.15 | −0.1 °C | 40.1 ± 0.16 | −0.1 °C |  |
| [Mg+2] [MgCl2, Magnesium chloride hexahydrate] | 46.7 ± 0.11 | 0.0 °C | 41.4 ± 0.17 | 1.3 ^d °C | Kd (hARH3 [7]; [9]): 5410 ± 322 µM; Kd (hARH3 [7]; [10]): ~5400 µM; apparent concentration needed to restore activity (LchARH3 [1]; EDTA-treated LchARH3, 1-1000 µM MgCl2): ~50 µM; support of hydrolysis of Ser-ADPr and PAR by metal (in words) (LchARH3 [1]): able to support hydrolysis of Ser-ADPr and PAR; Kd (LchARH3 [8]; [9]): 2300 ± 257 µM; Kd (LchARH3 [8]; [10]): ~2300 µM; support of hydrolysis of Ser-ADPr and PAR by metal (in words) (hARH3 [5]): able to support hydrolysis of Ser-ADPr and PAR |
| [Mn+2] [MnCl2, Manganese(II) chloride tetrahydrate] | 52.6 ± 0.09 |  | 51.5 ± 0.23 |  | Kd (hARH3 [7]): 208 ± 12 µM; support of hydrolysis of Ser-ADPr and PAR by metal (in words) (LchARH3 [1]): able to support hydrolysis of Ser-ADPr and PAR; Kd (LchARH3 [8]): 175 ± 24 µM; support of hydrolysis of Ser-ADPr and PAR by metal (in words) (hARH3 [5]): able to support hydrolysis of Ser-ADPr and PAR |
| O.O.O.O.O.O.[Cl][Ni][Cl] [NiCl2, Nickel(II) chloride hexahydrate] | 46.4 ± 0.09 | −0.3 °C | 40.7 ± 0.22 | 0.5 °C |  |
| [Cl-].[Cl-].[Zn+2] [ZnCl2, Zinc chloride] | 44.1 ± 0.07 | −2.6 ^d °C | 37.4 ± 0.25 | −2.8 ^d °C |  |
